Patent US12461089B2, “Olfactory receptor involved in the perception of musk fragrance and the use thereof” (ChemoSensoryX Biosciences SA, priority 2017, dated 2025)

How the values were obtained:
Type in all cases: cell-based
OR11A1 = target: T1, OR11A1 (Homo sapiens, UniProt Q9GZK7); experiment: Luciferase reporter concentration-response analysis on OR11A1; settings: CRE-luciferase; empty vector pEFIBRHO as control
T1 construct: expressed in transfected cells; host or cells: HEK293T-RTP1A1/RTP2
T1 sequence (Q9GZK7 1-315): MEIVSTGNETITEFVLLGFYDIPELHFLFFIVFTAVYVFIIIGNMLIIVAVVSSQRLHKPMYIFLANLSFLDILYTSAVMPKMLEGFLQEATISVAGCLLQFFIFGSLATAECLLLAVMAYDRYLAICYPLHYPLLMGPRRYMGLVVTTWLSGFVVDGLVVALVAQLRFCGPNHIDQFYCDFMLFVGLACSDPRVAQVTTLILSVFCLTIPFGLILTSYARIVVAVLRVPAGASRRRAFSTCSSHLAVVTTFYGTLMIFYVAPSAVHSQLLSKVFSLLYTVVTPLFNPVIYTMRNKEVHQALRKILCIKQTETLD
Method: (§1) HEK293T-RTP1A1/RTP2 cells were maintained in minimal essential medium (EMEM, Lonza) containing 10% fetal bovine serum (M10). These cells were generated by transfecting HEK293T with an expression vector containing the sequences of the chaperone proteins RTP1A1 and RTP2 and a resistance gene to puromycin, using Lipofectamine 2000.
(§2) Odorant molecules were diluted at a concentration of 1 mole/liter (M) into dimethyl sulfoxide (DMSO) to generate stock solutions.
(§3) For concentration-response analysis, serial dilutions of the tested molecules were prepared from stock solutions in EMEM plated into 96-well plates.
(§4) For the initial deorphanisation screening and dose-response analysis, a Luciferase-based gene reporter assay (Promega, Leiden, The Nederlands) was used. Briefly, cells were platted on Poly-D-lysine-coated 96-well and transfected with a plasmid containing the CRE-luciferase and a plasmid containing the olfactory receptor. Sixteen hours after transfection, the culture medium was replaced by serum-free EMEM containing the tested compounds at a determined concentration. After four hours of incubation at 37° C. degree, cells were lysed and processed for luminescence measurement. Luminescene emission was recorded. Results were expressed as luciferase activity (Relative […] Unit (RLU)) or as percentage of the response induced by 10 μM of the adenylate cyclase activator Forskolin. An empty plasmid is used as negative control.
(§5) 35 musk compounds from the four structurally different chemical groups previously described were tested in concentration-response analyses (Table 2). In each experiment, an empty vector was used as negative control (pEFIBRHO). […] Full results including the calculated EC50 are given in Table 2; “non active” represent negative experiments, no activation after testing.
These compounds were tested in concentration-response analysis in luciferase assays, as described previously. In each experiment, an empty vector was used as negative control (pEFIBRHO).

chimeric OR5A2_variant 1 = target: T2, chimeric OR5A2_variant 1 (Homo sapiens, UniProt Q8NGI9, F293L/H55R/I289L/M58T); experiment: Luciferase reporter concentration-response analysis on chimeric OR5A2_variant 1; settings: CRE-luciferase, empty vector pEFIBRHO as control
T2 construct: expressed in transfected cells; host or cells: HEK293T-RTP1A1/RTP2
T2 sequence (Q8NGI9 with tags, fused parts or gaps H55R/M58T/I289L/F293L): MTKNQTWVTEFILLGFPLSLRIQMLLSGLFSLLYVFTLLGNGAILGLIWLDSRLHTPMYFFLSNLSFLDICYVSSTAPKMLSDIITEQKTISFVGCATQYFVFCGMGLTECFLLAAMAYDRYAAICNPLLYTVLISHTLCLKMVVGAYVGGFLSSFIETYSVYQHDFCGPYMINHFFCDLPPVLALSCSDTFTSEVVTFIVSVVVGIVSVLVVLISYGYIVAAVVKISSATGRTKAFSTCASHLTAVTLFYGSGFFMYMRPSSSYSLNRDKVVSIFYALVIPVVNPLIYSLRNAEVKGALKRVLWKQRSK
Method: as §1, §2, §3, §4
To test if the amino acids substitution could impact the musk sensitivity, and specificity and to validate the Krautwurst's model, luciferase assays were performed as described previously after transfection of the chimeric OR5A2_variant 1. Cells were treated with semi-logarithmic serial dilutions of musk compounds from the four structurally different groups described earlier.
In each experiment, an empty vector was used as negative control (pEFIBRHO).

OR5AN1 = target: T3, OR5AN1 (Homo sapiens, UniProt Q8NGI8, E89G); experiment: Luciferase reporter concentration-response analysis on OR5AN1; settings: CRE-luciferase; empty vector pEFIBRHO as control
T3 construct: expressed in transfected cells; host or cells: HEK293T-RTP1A1/RTP2
T3 sequence (Q8NGI8 1-311 E89G): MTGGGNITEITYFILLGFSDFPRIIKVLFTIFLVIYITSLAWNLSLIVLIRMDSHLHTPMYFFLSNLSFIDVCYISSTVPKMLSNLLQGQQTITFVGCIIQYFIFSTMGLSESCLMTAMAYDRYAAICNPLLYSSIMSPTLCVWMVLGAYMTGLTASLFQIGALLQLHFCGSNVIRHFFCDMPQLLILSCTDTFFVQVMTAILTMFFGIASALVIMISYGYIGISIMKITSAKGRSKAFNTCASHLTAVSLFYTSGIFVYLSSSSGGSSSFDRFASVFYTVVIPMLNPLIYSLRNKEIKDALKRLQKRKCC
Method: as §1, with “2000. The recombinant cell population, used in these experiments, was selected by adding 10 μg/ml of puromycin into the culture medium and subsequently subcloned (WO 2014/191047 A1).” for “2000.”
as §2, §3, §4
In these analyses we also included ORs previously described as musk-specific receptors OR5AN1 (SEQ ID n° 7) (WO 2015/020158 A1, Shirasu et al. 2014 Neuron 81, 165-78, Sato-Akuhara N et al. 2016 J Neurosci. 36(16), 4482-91) and OR11A1 (SEQ ID n° 8) (WO 2016/201152 A1). […] Therefore, OR5A1 was included in the analyses. 35 musk compounds from the four structurally different chemical groups previously described were tested in concentration-response analyses (Table 2). In each experiment, an empty vector was used as negative control (pEFIBRHO). […] Full results including the calculated EC50 are given in Table 2; “non active” represent negative experiments, no activation after testing. […]

OR5A1 = target: T4, OR5A1 (Homo sapiens, UniProt Q8NGJ0); experiment: Luciferase reporter concentration-response analysis on OR5A1; settings: CRE-luciferase; empty vector pEFIBRHO as control
T4 construct: expressed in transfected cells; host or cells: HEK293T-RTP1A1/RTP2
T4 sequence (Q8NGJ0 1-315): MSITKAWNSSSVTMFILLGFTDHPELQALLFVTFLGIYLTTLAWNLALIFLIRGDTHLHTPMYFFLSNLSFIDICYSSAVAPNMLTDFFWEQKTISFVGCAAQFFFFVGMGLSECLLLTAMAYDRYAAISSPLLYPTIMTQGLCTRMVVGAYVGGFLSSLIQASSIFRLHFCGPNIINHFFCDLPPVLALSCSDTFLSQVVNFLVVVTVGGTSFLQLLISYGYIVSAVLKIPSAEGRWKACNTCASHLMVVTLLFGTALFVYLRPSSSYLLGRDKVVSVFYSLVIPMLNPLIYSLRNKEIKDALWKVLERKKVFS
Method: as §1, with “2000. The recombinant cell population, used in these experiments, was selected by adding 10 μg/ml of puromycin into the culture medium and subsequently subcloned (WO 2014/191047 A1).” for “2000.”
as §2, §3
as §4, with “Briefly, cells were platted on Poly-D-lysine-coated 96-well and transfected with a plasmid containing the CRE-luciferase and a plasmid containing the olfactory receptor.” left out, “An empty plasmid is used as negative control.” left out

OR5A2_variant 1 = target: T5, OR5A2_variant 1 (Homo sapiens, UniProt Q8NGI9); experiment: Luciferase reporter concentration-response analysis on OR5A2_variant 1; settings: CRE-luciferase; semi-logarithmic serial dilutions; empty vector pEFIBRHO as control
T5 construct: expressed in transfected cells; host or cells: HEK293T-RTP1A1/RTP2
T5 sequence (Q8NGI9 1-324): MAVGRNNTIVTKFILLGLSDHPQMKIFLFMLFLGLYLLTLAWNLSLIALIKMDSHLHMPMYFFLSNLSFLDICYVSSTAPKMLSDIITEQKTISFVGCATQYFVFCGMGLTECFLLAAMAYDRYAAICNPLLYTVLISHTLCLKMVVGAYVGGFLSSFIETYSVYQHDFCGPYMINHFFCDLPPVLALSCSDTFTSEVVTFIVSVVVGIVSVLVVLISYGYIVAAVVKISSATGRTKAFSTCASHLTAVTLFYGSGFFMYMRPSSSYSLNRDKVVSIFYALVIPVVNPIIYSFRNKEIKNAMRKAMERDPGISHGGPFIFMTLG
Method: as §1, §2, §3, §4, §5

SMILES	activation of OR11A1, concentration-response (OR11A1)	activation of chimeric OR5A2_variant 1, concentration-response (chimeric OR5A2_variant 1)	activation of chimeric OR5A2_variant 1, concentration-response (chimeric OR5A2_variant 1; listed as ethyl-fenchol)	activation of OR5AN1, concentration-response (OR5AN1)	activation of OR5A1, concentration-response (OR5A1)	activation of OR5A2 (OR5A2_variant 1), concentration-response (OR5A2_variant 1)	activation of chimeric OR5A2_variant 1, concentration-response (chimeric OR5A2_variant 1; listed as beta-ionone)
CCC1(O)C2(C)CCC(C2)C1(C)C (stereo not drawn) [2 ethyl-fenchol]	able to activate OR11A1 only	not activated	not able to activate	stimulated neither	able to activate OR11A1 only	stimulated neither	
CC(=O)/C=C/C1=C(C)CCCC1(C)C [Beta-ionone]	able to activate OR5A1 only	not able to activate		stimulated neither	able to activate OR5A1 only	stimulated neither	not activated
